A short description of series [1]: acute oral toxicity test. The note with it: in vivo. An excerpt:
The results of an acute oral toxicity test of the active ingredient used in the present invention is that its LD50 is about 6 g/kg in the case of N-lauroyl-L-valine. This is an extremely low toxicity.

The test system of series [2] is citrus melanose. Kind of series: inhibitory test against Citrus melanose. The format is in vivo. An excerpt: Experimental example 3 : inhibitory test against Citrus melanose a. Test plant: shoots of about 3 years grown seedlings of citrus "Onshu" (2 - 4 trees planted in about 20 cm claypot) b. Solution used for test
As control fungicide, "Daisen" [trade (trade name, product of Nihon-NohyakuCo., Ltd., wettable powder containing zinc ethylene bis (dithiocarbamate)]was sprayed at 1000 ppm. c. Inoculum and the method of inoculation
In order to prepare suspension of pycnospores, distilled and sterilized water was poured on the culture twigs with citrus melanose in a test tube. The suspension containing about 200 of pycnospores was prepared under the observation of microscope of 150 magnification and then sprayed inoculation on the test plants treated as above. After inoculation, the test plants were placed in the inoculation box at 27°C and relative humidity of above 95% for about 3 days. Then, they were transferred into the greenhouse. […]
d. The method of inspection
About 2 - 3 weeks after inoculation, the entire leaves of shoots was inspected for the development of disease and the state of infection was evaluated on a scale of 0 to 3 as follows:
1 : 1 -- 50 of disease spots
2 : 51 -- 150 of disease spots
3 : above 151 of disease spots
The extent of infection and the preventive value were calculated according to the following equations (I) and (II), respectively. [formula] wherein n1, n2 and n3 are number of leaves inspected to be the states of infection 1, 2 and 3, respectively and N is the total number of leaves. [formula]

Series [3] deals with cucumber downy mildew (Pseudoperonospore cubensis). Kind of series: inhibitory test against cucumber downy mildew. The format is in vivo. The note with it: Table 7, 500 ppm, four sprays; for pest or weed control at 500 ppm: Cucumis sativus. As for the experimental part:
Experimental example 4 : inhibitory test against cucumber downy mildew
Cucumber seeds (variety "Shinhikari No. A") were planted in seed-beds at the biginning of October, three cucumber seeds being planted per seed-bed, and they were grown in a greenhouse made of vinyl resin. This experiment was performed as three-repeated cultivation.
The test plants treated thus were left to spontaneous infection.

In series [4] the test system is Piricularia oryzae (rice blast). The note with it: Table 2; 500 ppm; untreated 34.2.
The test system is the same in series [5]. Kind of series: whole plant or invertebrate. The note with it: Pyricularia oryzae, 48 h, read-out: Preventive value.

Each structure is given as a SMILES string. Like-named read-outs stand apart in the source and are kept apart here.

With `CCCCCCCCCCCC(=O)N[C@H](C(=O)O)C(C)C` [No. 2, N-lauroyl-L-valine], the LD50 in series [1] is about 6000 mg/kg.
Turning to `CCCCCCCCCCCC(=O)N[C@@H](CCCNC(=N)N)C(=O)OCC` [compound 27], the pest or weed control at 500 ppm in series [2] (Table 5, about 2-3 weeks after inoculation, read-out: Preventive value) turned out to be 75%; in series [3] (inside of leaves, read-out: Preventive value (inside)) it was 40%; in series [3] (outside of leaves, read-out: Preventive value (outside)) it was 52%; in series [5], 80%. The Extent of infection in series [2] (Table 5, 500 ppm, about 2-3 weeks after inoculation, untreated 57) is 14%. The “Number of leaves infected (outside)” value in series [3] (23rd of May, untreated 13) was found to be 6. Also, the “Number of leaves infected (inside)” value in series [3] (23rd of May, untreated 15) was found to be 9. Moreover, the “Average number of disease lesions per leaf” value in series [4] is recorded as 6.8.

In general, LD50 refers to the dose at which mortality reaches 50%. A low value points to a more toxic substance.

(Values after patent US3947589A (priority 1971, dated 1976).)
